From patent publication US11857565B2, “Hydrophobic Auristatin F compounds and conjugates thereof” (priority 2018, dated 2024) come the findings set out here.

Non-standard residues stand in square brackets, D forms with d. Residues, ends and D or L forms follow the SMILES beside them. *: point of attachment. Dolaproine = CO[C@@H]([C@@H]1CCCN1)[C@@H](C)C(=O)O; X16 = CC(CCN(C)[C@H](C(=O)*)C(C)C)CC(C)(C)C; Dil = CC[C@H](C)[C@H](NC)[C@@H](CC(=O)O)OC; X21 = CCCCCCCCCCCN(C)[C@H](C(=O)*)C(C)C; X8 = CCCCCCCCCCCCN(C)[C@H](C(=O)*)C(C)C; X11 = CCCCCCCCCN(C)[C@H](C(=O)*)C(C)C; X14 = CCCCCCCCN(C)[C@H](C(=O)*)C(C)C; X24 = CC(C)CCCN(C)[C@H](C(=O)*)C(C)C; X20 = CCCCCCCN(C)[C@H](C(=O)*)C(C)C; X9 = CCCCCCN(C)[C@H](C(=O)*)C(C)C; X10 = CCCCN(C)[C@H](C(=O)*)C(C)C; X15 = CCCN(C)[C@H](C(=O)*)C(C)C; X17 = CCN(CC)[C@H](C(=O)*)C(C)C

The subject of assay [1] is MDR+ HL60/RV acute myeloid leukemia cell line. In words: In vitro cytotoxicity (CellTiter-Glo cell proliferation assay), free drugs on HL60/RV. In kind it is cell-based. Conditions: Homo sapiens, HL-60, 96 h, read-out: In vitro IC50 HL60/RV (MDR+). The protocol: (§1) The cytotoxicity of an auristatin Ligand Drug Conjugate or free auristatin drug was measured by a cell proliferation assay employing the protocol described in Promega Corp. Technical Bulletin TB288; Mendoza et al., 2002, Cancer Res. 62:5485-5488), the methods of which is specifically incorporated by reference herein. Briefly, an aliquot of 100 μl of cell culture containing about […] (e.g., HL-60, SK-MEL-5, etc.) in medium is deposited in each well of a 96-well, opaque-walled plate. Control wells were prepared containing medium and without cells. Free Drug or conjugate is added to the experimental wells and incubated for 96 h and are then equilibrated to room temperature for approximately 30 minutes whereupon a volume of CellTiter-Glo™ reagent equal to the volume of cell culture medium present in each well is added. The contents are mixed for 2 minutes on an orbital shaker to induce cell lysis and the plate is incubated at room temperature for 10 minutes to stabilize the luminescence signal for recordation.
Background: Cellular ATP, detected with luciferase, serves as a proxy for viable cell number.

In assay [2] the test system is MDR− HL60 acute myeloid leukemia cell line. In words: In vitro cytotoxicity (CellTiter-Glo cell proliferation assay), free drugs on HL60. In kind it is cell-based. Conditions: Homo sapiens, HL-60, 96 h, read-out: In vitro IC50 HL60 (MDR−). The protocol:
as §1

As for `CC[C@H](C)[C@@H]([C@@H](CC(=O)N1CCC[C@H]1[C@H](OC)[C@@H](C)C(=O)N[C@@H](Cc1ccccc1)C(=O)O)OC)N(C)C(=O)[C@@H](NC(=O)[C@H](C(C)C)N(CC)CC)C(C)C` [Compound 22, Bis(ethyl)-AF] (X17-V[Dil][Dolaproine]F-OH), the IC50 in assay [1] stood at 0.202 µM; in assay [2], 0.0136 µM.
Turning to `CCCCCCCCN(C)[C@H](C(=O)N[C@H](C(=O)N(C)[C@@H]([C@@H](C)CC)[C@@H](CC(=O)N1CCC[C@H]1[C@H](OC)[C@@H](C)C(=O)N[C@@H](Cc1ccccc1)C(=O)O)OC)C(C)C)C(C)C` [Compound 10, Octyl-AF] (X14-V[Dil][Dolaproine]F-OH), the IC50 worked out at 0.0559 µM in assay [1] and 0.0039 µM in assay [2].
The like results for `CC[C@H](C)[C@@H]([C@@H](CC(=O)N1CCC[C@H]1[C@H](OC)[C@@H](C)C(=O)N[C@@H](Cc1ccccc1)C(=O)O)OC)N(C)C(=O)[C@@H](NC(=O)[C@H](C(C)C)N(C)CCCC(C)C)C(C)C` [Compound 19, 4-Methylpentyl-AF] (X24-V[Dil][Dolaproine]F-OH) were, in that order, 0.0205 µM and 0.0049 µM.
The like results for `CCCCCCCCCN(C)[C@H](C(=O)N[C@H](C(=O)N(C)[C@@H]([C@@H](C)CC)[C@@H](CC(=O)N1CCC[C@H]1[C@H](OC)[C@@H](C)C(=O)N[C@@H](Cc1ccccc1)C(=O)O)OC)C(C)C)C(C)C` [Compound 11, Nonyl-AF] (X11-V[Dil][Dolaproine]F-OH) were, in that order, 0.0354 µM and 0.0018 µM.
The matching figures for `CCCCN(C)[C@H](C(=O)N[C@H](C(=O)N(C)[C@@H]([C@@H](C)CC)[C@@H](CC(=O)N1CCC[C@H]1[C@H](OC)[C@@H](C)C(=O)N[C@@H](Cc1ccccc1)C(=O)O)OC)C(C)C)C(C)C` [Compound 6, Butyl-AF] (X10-V[Dil][Dolaproine]F-OH): 0.0479 µM and 0.0143 µM.
With `CCCCCCCCCCCN(C)[C@H](C(=O)N[C@H](C(=O)N(C)[C@@H]([C@@H](C)CC)[C@@H](CC(=O)N1CCC[C@H]1[C@H](OC)[C@@H](C)C(=O)N[C@@H](Cc1ccccc1)C(=O)O)OC)C(C)C)C(C)C` [Compound 13, Undecyl-AF] (X21-V[Dil][Dolaproine]F-OH), the IC50 was 0.0602 µM in assay [1] and 0.001 µM in assay [2].
The like results for `CCCCCCCCCCCCN(C)[C@H](C(=O)N[C@H](C(=O)N(C)[C@@H]([C@@H](C)CC)[C@@H](CC(=O)N1CCC[C@H]1[C@H](OC)[C@@H](C)C(=O)N[C@@H](Cc1ccccc1)C(=O)O)OC)C(C)C)C(C)C` [Compound 14, Dodecyl-AF] (X8-V[Dil][Dolaproine]F-OH) were, in that order, 0.138 µM and 0.0014 µM.
Regarding `CCCCCCCN(C)[C@H](C(=O)N[C@H](C(=O)N(C)[C@@H]([C@@H](C)CC)[C@@H](CC(=O)N1CCC[C@H]1[C@H](OC)[C@@H](C)C(=O)N[C@@H](Cc1ccccc1)C(=O)O)OC)C(C)C)C(C)C` [Compound 9, Heptyl-AF] (X20-V[Dil][Dolaproine]F-OH), the IC50 turned out to be 0.0885 µM in assay [1] and 0.0077 µM in assay [2].
The like results for `CC[C@H](C)[C@@H]([C@@H](CC(=O)N1CCC[C@H]1[C@H](OC)[C@@H](C)C(=O)N[C@@H](Cc1ccccc1)C(=O)O)OC)N(C)C(=O)[C@@H](NC(=O)[C@H](C(C)C)N(C)CCC(C)CC(C)(C)C)C(C)C` (stereo partly shown) [Compound 20, 3,5,5-Trimethylhexyl-AF] (X16-V[Dil][Dolaproine]F-OH) were, in that order, 0.017 µM and 0.001 µM.
The matching figures for `CCCCCCN(C)[C@H](C(=O)N[C@H](C(=O)N(C)[C@@H]([C@@H](C)CC)[C@@H](CC(=O)N1CCC[C@H]1[C@H](OC)[C@@H](C)C(=O)N[C@@H](Cc1ccccc1)C(=O)O)OC)C(C)C)C(C)C` [Compound 8, Hexyl-AF] (X9-V[Dil][Dolaproine]F-OH): 0.0409 µM and 0.0069 µM.
Consider `CCCN(C)[C@H](C(=O)N[C@H](C(=O)N(C)[C@@H]([C@@H](C)CC)[C@@H](CC(=O)N1CCC[C@H]1[C@H](OC)[C@@H](C)C(=O)N[C@@H](Cc1ccccc1)C(=O)O)OC)C(C)C)C(C)C` [Compound 5, Propyl-AF] (X15-V[Dil][Dolaproine]F-OH), for which the IC50 in assay [1] came out at 0.0821 µM; in assay [2], 0.0245 µM.
